Measured values from patent publication US9695155B2, “Herbicidal substituted pyrimidinyloxy benzene compounds” (E. I. DU PONT DE NEMOURS AND COMPANY, priority 2013, dated 2017).

Columns and labels:
[1] = system: giant foxtail; assay: Test C postemergence; format: in vivo, Setaria faberii; conditions: for Plant response rating, Foxtail, Giant: Postemergence
Procedure, shortened: (§1)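 Preemergence: seeds sown in a loam soil–sand blend and sprayed with test chemical in a non-phytotoxic solvent mixture containing surfactant. Postemergence: plants at 2 to 18 cm (1- to 4-leaf stage) in peat-based medium, treated with the same formulation. Greenhouse 13 to 15 days, then visual rating 0 (no effect) to 100 (complete control).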

[2] = system: velvetleaf; assay: Test A preemergence; format: in vivo, Abutilon theophrasti; conditions: for Plant response rating, Velvetleaf: 125 g ai/ha, 0 to 100 scale where 0 is no effect and 100 is complete control
Procedure, shortened: (§2)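 Visual 0–100 rating (100 = complete control) taken about 10 d post-treatment relative to untreated checks. Preemergence: directed soil spray on sown loam/sand pots. Postemergence: seedlings 2–10 cm, 1–2 leaf. Non-phytotoxic solvent formulation with surfactant.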

[3] = system: corn; assay: Test C postemergence; format: in vivo, Zea mays; conditions: for Plant response rating, Corn: Postemergence
Procedure, shortened: as §1

[4] = system: sedge, umbrella; assay: Test B flooded paddy test; format: in vivo, Cyperus difformis; conditions: Flood, 250 g ai/ha; 0 to 100 scale where 0 is no effect and 100 is complete control
Procedure, shortened: (§3)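 Plants were grown to the 2-leaf stage, then pots were flooded to 3 cm above the soil and compounds were applied directly into the paddy water. That depth was held throughout, and after 13 to 15 days in the greenhouse injury was rated visually against controls on a 0–100 scale (0 no effect, 100 complete control).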

[5] = system: morningglory; assay: Test C postemergence; format: in vivo, Ipomoea coccinea; conditions: for Plant response rating (0 to 100), Morningglory: postemergence; for Plant response rating, Morningglory: Postemergence, scale 0 to 100 (0 no effect, 100 complete control)
Procedure, shortened: as §1

[6] = system: morningglory; assay: Test A preemergence; format: in vivo, Ipomoea spp.; conditions: for Plant response rating, Morningglory: 125 g ai/ha, 0 to 100 scale where 0 is no effect and 100 is complete control; for Morningglory plant response rating: 500 g ai/ha, 0 to 100 scale, 0 no effect, 100 complete control, approx. 10 days
Procedure, shortened: as §2

[7] = system: barnyardgrass; assay: Test B flooded paddy test; format: in vivo, Echinochloa crus-galli; conditions: Flood, 250 g ai/ha; 0 to 100 scale where 0 is no effect and 100 is complete control
Procedure, shortened: as §3

[8] = system: wheat, winter; assay: Test C postemergence; format: in vivo, Triticum aestivum; conditions: for Plant response rating (0 to 100), Wheat: postemergence; for Plant response rating, Wheat: Postemergence, scale 0 to 100 (0 no effect, 100 complete control)
Procedure, shortened: as §1

[9] = system: yellow nutsedge; assay: Test C postemergence; format: in vivo, Cyperus esculentus; conditions: for Plant response rating (0 to 100), Nutsedge, Yellow: postemergence; for Plant response rating, Nutsedge, Yellow: Postemergence, scale 0 to 100 (0 no effect, 100 complete control)
Procedure, shortened: as §1

[10] = system: corn; assay: Test A preemergence; format: in vivo, Zea mays; conditions: for Plant response rating, Corn: 125 g ai/ha, 0 to 100 scale where 0 is no effect and 100 is complete control; for Corn plant response rating: 500 g ai/ha, 0 to 100 scale, 0 no effect, 100 complete control, approx. 10 days
Procedure, shortened: as §2

[11] = system: rice; assay: Test B flooded paddy test; format: in vivo, Oryza sativa; conditions: Flood, 250 g ai/ha; 0 to 100 scale where 0 is no effect and 100 is complete control
Procedure, shortened: as §3

[12] = system: soybean; assay: Test C postemergence; format: in vivo, Glycine max; conditions: for Plant response rating (0 to 100), Soybean: postemergence; for Plant response rating, Soybean: Postemergence, scale 0 to 100 (0 no effect, 100 complete control)
Procedure, shortened: as §1

[13] = system: barnyardgrass; assay: Test A postemergence; format: in vivo, Echinochloa crus-galli
Procedure, shortened: as §2

[14] = system: Heteranthera limosa; assay: Test B flooded paddy test; format: in vivo; conditions: Flood, 250 g ai/ha; 0 to 100 scale where 0 is no effect and 100 is complete control
Procedure, shortened: as §3

[15] = system: wheat; assay: Test A postemergence; format: in vivo, Triticum aestivum
Procedure, shortened: as §2

[16] = system: large (Lg) crabgrass; assay: Test A preemergence; format: in vivo, Digitaria sanguinalis; conditions: for Plant response rating, Crabgrass, Large: 125 g ai/ha, 0 to 100 scale where 0 is no effect and 100 is complete control; for Crabgrass, Large plant response rating: 500 g ai/ha, 0 to 100 scale, 0 no effect, 100 complete control, approx. 10 days
Procedure, shortened: as §2

[17] = system: ragweed; assay: Test C postemergence; format: in vivo, Ambrosia elatior; conditions: for Plant response rating (0 to 100), Ragweed: postemergence; for Plant response rating, Ragweed: Postemergence, scale 0 to 100 (0 no effect, 100 complete control)
Procedure, shortened: as §1

[18] = 31 g ai/ha, scale 0 to 100 (0 no effect, 100 complete control), 13 to 15 days
[19] = 62 g ai/ha, scale 0 to 100 (0 no effect, 100 complete control)
[20] = 125 g ai/ha, 0 to 100 scale where 0 is no effect and 100 is complete control
[21] = 500 g ai/ha, 0 to 100 scale, 0 no effect, 100 complete control
[22] = 16 g ai/ha, postemergence, visual rating, scale 0 to 100 (0 no effect, 100 complete control), 13 to 15 days
[23] = 500 g ai/ha, 0 to 100 scale where 0 is no effect and 100 is complete control

**Q.** For `Fc1cnc(Oc2ccccc2-n2cc(C(F)(F)F)cn2)nc1` [Compound 47], which “Plant response rating (0 to 100), Foxtail, Giant” value ([1]; 125 g ai/ha, postemergence) is on record?
**A.** 25

**Q.** And the “Plant response rating (0 to 100), Foxtail, Giant” value ([1]; 250 g ai/ha, postemergence)?
**A.** 80

**Q.** And the “Plant response rating, Foxtail, Giant” value [1, 18]?
**A.** 10

**Q.** What about the “Plant response rating, Foxtail, Giant” value [1, 19] of the same molecule?
**A.** 25

**Q.** And the “Plant response rating, Velvetleaf” value [2]?
**A.** 100

**Q.** What about the “Velvetleaf plant response rating” value ([2]; 500 g ai/ha, 0 to 100 scale, 0 no effect, 100 complete control, approx. 10 days) of the same molecule?
**A.** 100

**Q.** And the “Plant response rating (0 to 100), Corn” value ([3]; 125 g ai/ha, postemergence)?
**A.** 5

**Q.** What about the “Plant response rating (0 to 100), Corn” value ([3]; 250 g ai/ha, postemergence) of the same molecule?
**A.** 5

**Q.** And the “Plant response rating, Corn” value [3, 18]?
**A.** 0

**Q.** And the “Plant response rating, Corn” value [3, 19]?
**A.** 0

**Q.** And the “Plant response rating, Sedge, Umbrella” value [4]?
**A.** 70

**Q.** What about the “Plant response rating (0 to 100), Morningglory” value ([5]; 125 g ai/ha) of the same molecule?
**A.** 70

**Q.** And the “Plant response rating (0 to 100), Morningglory” value ([5]; 250 g ai/ha)?
**A.** 75

**Q.** And the “Plant response rating, Morningglory” value ([5]; 31 g ai/ha, 13 to 15 days)?
**A.** 20

**Q.** And the “Plant response rating, Morningglory” value ([5]; 62 g ai/ha)?
**A.** 70

**Q.** What about the “Plant response rating, Morningglory” value [6] of the same molecule?
**A.** 0

**Q.** And the “Morningglory plant response rating” value [6]?
**A.** 100

**Q.** And the “Plant response rating, Barnyardgrass” value [7]?
**A.** 10

**Q.** And the “Plant response rating (0 to 100), Wheat” value ([8]; 125 g ai/ha)?
**A.** 0

**Q.** What about the “Plant response rating (0 to 100), Wheat” value ([8]; 250 g ai/ha) of the same molecule?
**A.** 0

**Q.** And the “Plant response rating, Wheat” value ([8]; 31 g ai/ha, 13 to 15 days)?
**A.** 0

**Q.** What about the “Plant response rating, Wheat” value ([8]; 62 g ai/ha) of the same molecule?
**A.** 0

**Q.** And the “Plant response rating (0 to 100), Nutsedge, Yellow” value ([9]; 125 g ai/ha)?
**A.** 0

**Q.** And the “Plant response rating (0 to 100), Nutsedge, Yellow” value ([9]; 250 g ai/ha)?
**A.** 10

**Q.** And the “Plant response rating, Nutsedge, Yellow” value ([9]; 31 g ai/ha, 13 to 15 days)?
**A.** 0

**Q.** And the “Plant response rating, Nutsedge, Yellow” value ([9]; 62 g ai/ha)?
**A.** 0

**Q.** What about the “Plant response rating, Corn” value [10] of the same molecule?
**A.** 0

**Q.** And the “Corn plant response rating” value [10]?
**A.** 90

**Q.** What about the “Plant response rating, Rice” value [11] of the same molecule?
**A.** 35

**Q.** And the “Plant response rating (0 to 100), Soybean” value ([12]; 125 g ai/ha)?
**A.** 65

**Q.** What about the “Plant response rating (0 to 100), Soybean” value ([12]; 250 g ai/ha) of the same molecule?
**A.** 65

**Q.** And the “Plant response rating, Soybean” value ([12]; 31 g ai/ha, 13 to 15 days)?
**A.** 35

**Q.** What about the “Plant response rating, Soybean” value ([12]; 62 g ai/ha) of the same molecule?
**A.** 45

**Q.** What about the “Plant response rating, Barnyardgrass” value [13, 20] of the same molecule?
**A.** 30

**Q.** And the “Plant response rating, Barnyardgrass” value [13, 21]?
**A.** 100

**Q.** And the “Plant response rating, Ducksalad” value [14]?
**A.** 95

**Q.** What about the “Plant response rating, Wheat” value [15, 20] of the same molecule?
**A.** 60

**Q.** And the “Plant response rating, Wheat” value [15, 21]?
**A.** 100

**Q.** What about the “Plant response rating, Crabgrass, Large” value [16] of the same molecule?
**A.** 90

**Q.** What about the “Crabgrass, Large plant response rating” value [16] of the same molecule?
**A.** 100

**Q.** What about the “Plant response rating (0 to 100), Ragweed” value ([17]; 125 g ai/ha) of the same molecule?
**A.** 50

**Q.** And the “Plant response rating (0 to 100), Ragweed” value ([17]; 250 g ai/ha)?
**A.** 85

**Q.** What about the “Plant response rating, Ragweed” value ([17]; 31 g ai/ha, 13 to 15 days) of the same molecule?
**A.** 20

**Q.** And the “Plant response rating, Ragweed” value ([17]; 62 g ai/ha)?
**A.** 50

**Q.** What does the source list for `FC(F)Oc1cnn(-c2ccccc2Oc2ncc(Cl)cn2)c1` [Compound 98]?
**A.** Foxtail, Giant plant response rating [1, 22]: 5; Plant response rating (0 to 100), Foxtail, Giant ([1]; 125 g ai/ha, postemergence): 10; Plant response rating, Foxtail, Giant [1, 18]: 5; Plant response rating, Foxtail, Giant [1, 19]: 5; Plant response rating, Velvetleaf [2]: 90; Corn plant response rating [3, 22]: 5; Plant response rating (0 to 100), Corn ([3]; 125 g ai/ha, postemergence): 20; Plant response rating, Corn [3, 18]: 10; Plant response rating, Corn [3, 19]: 5; Plant response rating, Sedge, Umbrella [4]: 85; Plant response rating (0 to 100), Morningglory ([5]; 125 g ai/ha): 85; Plant response rating, Morningglory ([5]; 31 g ai/ha, 13 to 15 days): 30; Plant response rating, Morningglory ([5]; 62 g ai/ha): 65; Plant response rating, Morningglory [6]: 60; Morningglory plant response rating [6]: 80; Plant response rating, Barnyardgrass [7]: 35; Plant response rating (0 to 100), Wheat ([8]; 125 g ai/ha): 10; Plant response rating, Wheat ([8]; 31 g ai/ha, 13 to 15 days): 0; Plant response rating, Wheat ([8]; 62 g ai/ha): 5; Plant response rating (0 to 100), Nutsedge, Yellow ([9]; 125 g ai/ha): 5; Plant response rating, Nutsedge, Yellow ([9]; 31 g ai/ha, 13 to 15 days): 10; Plant response rating, Nutsedge, Yellow ([9]; 62 g ai/ha): 5; Plant response rating, Corn [10]: 0; Corn plant response rating [10]: 10; Plant response rating, Rice [11]: 15; Plant response rating (0 to 100), Soybean ([12]; 125 g ai/ha): 90; Plant response rating, Soybean ([12]; 31 g ai/ha, 13 to 15 days): 40; Plant response rating, Soybean ([12]; 62 g ai/ha): 60; Plant response rating, Barnyardgrass [13, 20]: 80; Plant response rating, Barnyardgrass [13, 23]: 90; Plant response rating, Ducksalad [14]: 85; Plant response rating, Wheat [15, 23]: 60; Plant response rating, Crabgrass, Large [16]: 100; Crabgrass, Large plant response rating [16]: 100; Plant response rating (0 to 100), Ragweed ([17]; 125 g ai/ha): 40; Plant response rating, Ragweed ([17]; 31 g ai/ha, 13 to 15 days): 10; Plant response rating, Ragweed ([17]; 62 g ai/ha): 30
